The numbers were not newly measured in patent publication US20040018260A1, “Novel botanical extract of Tripterygium Wilfordii Hook F” (Novemed Group Limited, priority 2002, published 2004), which cites them from elsewhere.

The conditions of series [1]: in vitro and animal experiments; results called inconclusive.
For series [2] the following is noted: in vitro and animal experiments; results called inconclusive. The source holds these as a separate data set.
The conditions of series [3]: reported.

SMILES strings stand for the structures. “Also recorded” adds a separate entry of the source.

For the compound `CC(C)[C@]12O[C@H]1[C@@H]1O[C@@]13[C@@]1(C)CCC4=C(COC4=O)[C@@H]1C[C@@H]1O[C@@]13C2=O` [T7, Triptonide], the anti-inflammatory activity result in series [1] is listed as “relatively low activities”. Moreover, in series [2], the immunosuppressive activity entry is reported as “relatively low activities”.
`CC(C)[C@]12O[C@H]1[C@@H]1O[C@]13[C@]1(O[C@H]1C[C@H]1C4=C(CC[C@@]13C)C(=O)OC4)[C@@H]2O` [T10, triptolide]: the anti-inflammatory activity entry in series [1] is “most abundant and active compound”. The carcinogenic or mutagenic entry in series [3] is reported as “potently carcinogenic or mutagenic; also recorded: carcinogenic”. Moreover, the immunosuppressive activity result in series [2] is “most abundant and active compound”.
In the case of `CC(C)[C@]1(O)[C@H](O)[C@@H]2O[C@]23[C@]2(O[C@H]2C[C@H]2C4=C(CC[C@@]23C)C(=O)OC4)[C@@H]1O` [T11, tripriolide], the anti-inflammatory activity entry in series [1] is listed as “highest anti-inflammatory activity”. Further, the immunosuppressive activity entry in series [2] is listed as “little immunosuppressive activity”.
